Results taken from US7989502B2, “Intranasal delivery of modafinil” (SRI International, priority 2009, dated 2011).

Legend:
[1] = system: male Sprague Dawley rats; experiment: Intranasal drug delivery snort model, EEG/EMG sleep-wake behavior in rats; assay type: in vivo, rat
Method: Formulation of Intranasal Drugs. Modafinil (Sigma) was solubilized using LME comprised of equal amounts of olive oil and phosphatidyl serine sonicated in succinate buffer, pH 8; modafinil concentrations 0.2 and 2 mg/ml. Control rats received either saline alone or lipid emulsion in succinate buffer, pH 8
Animals and surgery. Anesthetized male Sprague Dawley rats (250-350 g) were implanted with sleep recording electrodes to monitor electroencephalographic (EEG) and electromyographic (EMG) activities. A femoral vein catheter was also implanted and dorsally extended subcutaneously to exit at the posterior end of the EEG/EMG implant. The rats were individually housed in a controlled environment (12 h lights on/off; lights on, 8 am) with access to food and water ad libitum. The animals were allowed to recover for approximately 7-10 days following surgery and habituated to the recording chambers. Baseline behavior was continuously recorded for 48 to 60 h prior to experiment initiation and for at least 24 h post drug administration. Rats were sacrificed by pentobarbital administration (200 mg/kg, i.v.) into the femoral catheter without handling the animal, Greco et al., Neuroscience. 1999; 93(4):1369-74; Vazquez et al., J Cell Biochem. 2008 Dec. 15; 105(6):1472-84.
Intranasal drug delivery—snort model. Three hours into the lights on period, each rat was anesthetized with ˜3% isoflurane in O2 and placed on its back. The head and neck of the rat remained flat and horizontal throughout the entire procedure to prevent any drug from draining down the back of the throat. Reflexes were monitored periodically and anesthetic level was reduced to ˜1.5% isoflurane in O2 for anesthesia maintenance. Each drug was given in 6-7 ul administered with a manual pipette every 2 minutes into alternating nostrils (total volume=50 ul). Two minutes after the last drop was administered, the rat was removed from anesthesia, reconnected to the tethering cable and placed in the recording chamber. The effect of intranasal drug delivery on sleep-wake behavior was monitored for 24 h post-intranasal drug delivery.
Results. Rats awakened within one minute post modafinil administration. Control rats awoke within 3-5 minutes after termination of anesthesia. EEG and EMG activity during wakefulness, slow wave sleep (SWS), and rapid eye movement (REM) sleep were captured digitally, and subsequently scored manually in 10 sec epochs, averaged into one minute bins and represented graphically by hour for approximately 5 to 8 h post drug delivery. Representative individual hypnograms show the wake-promoting effects via intranasal delivery directly to the CNS. Modafinil induced wakefulness in rats at a 100-fold lower dose via our intranasal route than what has been previously published using traditional routes of administration (ie. i.v., oral).
We designed protocols to further optimize concentrations of sleep and wake promoting drugs for intranasal delivery. In exemplary experiments, the drugs are administered to rats in the following concentrations: Modafinil: 0.2 mg/ml (n=3), 0.1 mg/ml (n=3), 0 (LME only, n=3), and the rats instrumented and tested as detailed above.
Sleep Scoring and Statistical Analyses. EEG/EMG recordings are scored using SleepSign™ for Animals (Kissei Comtec, Irvine, Calif.), manually verified for accuracy and stored to disk. Waking is identified by the presence of desynchronized EEG readings and high EMG activity. SWS is identified by high amplitude slow waves together with a low EMG tone relative to waking. REM sleep is identified by the presence of regular theta activity coupled with low EMG relative to SWS. REM sleep is scored only when it follows at least a 15 s episode of SWS. All sleep-wake parameters are analyzed for each hour of the recording periods, then averaged to yield 24 h baseline estimates. A similar analysis is performed prior to and post intranasal drug administration. […]

[2] = system: rats; experiment: Chronic sleep deprivation paradigm, EEG/EMG recordings and roto-rod performance; assay type: in vivo, rat; settings: rats deprived of sleep 6 h on 3 consecutive days
Method: In our chronic sleep deprivation paradigm rats are deprived of sleep for 6 h on 3 consecutive days starting at the beginning of the lights on period, when the pressure to sleep is maximal. The sleep deprivation begins with the administration of modafinil and is immediately followed by roto-rod testing. EEG/EMG recordings resumes once the rats are returned to the cage. If needed, the rats are kept awake for the remainder of the deprivation period by gentle handling. At the end of the sleep deprivation, the rats are again subjected to roto-rod testing. The sleep deprivation protocol is executed for 3 consecutive days. On the third day, half of the rats are sacrificed immediately following the sleep deprivation period. A second group of rats are sacrificed after 1-2 h of recovery sleep (RS). […]
In this protocol, the intranasal delivery of modafinil is assayed by two behavioral indicies—EEG/EMG recordings of sleep-wakefulness and performance (wheel running, roto-rod assay). […] The EEG/EMG data is analyzed as detailed above. For the roto-rod testing, the amount of time each rat spends on the wheel is analyzed and compared to control. Qualitative and quantitative analysis sets are generated and descriptive statistical comparisons and two-way ANOVA with post hoc multiple comparisons are used to evaluate changes in behavior/wheel running as a function of the day and drug, assuming equal variances.

[3] = system: healthy male subjects; experiment: Intranasal modafinil in chronically sleep deprived humans (simulated military operation, 18 h continuous work); assay type: in vivo, human; settings: 2, 10, 50 and 200 ug groups, VIANASE or OPTINOSE, given 9 h into the work period; versus LME-only and systemically-administered modafinil controls
Method: 4. Efficacy of our intranasal drug delivery in chronically sleep deprived humans is also readily confirmed using established methods. Our preferred protocol is based on the results of a series of experiments that tested the treatment efficacy of a hypnotic-stimulant combination to maintain sleep quality, performance, and alertness (Batéjat, et al., Aviat Space Environ Med. 2006 May; 77(5):515-25). Here, healthy male subjects are given zolpidem then allowed to sleep for 6 h prior to being subjected to a simulated military operation of 18 h continuous work. Modafinil (2, 10, 50 and 200 ug dosage treatment groups) is administered using (a) VIANASE electronic atomizer (Bothell, Wash.) or (b) OPTINOSE nasal delivery system (Oslo, Norway) 9 h into the work period. The effects of drugs on sleep-wake behavior (EEG recordings), cortical activation (Critical Flicker Frequency test) and performance levels (reaction time, memory search, attention, dual task, computerized Stroop tests) are monitored.

For NC(=O)C[S+]([O-])C(c1ccccc1)c1ccccc1 (stereo not drawn) [Modafinil], which “effective dose, body-weight equivalent” value ([1]; 2.5 ug to a 350 g rat) is on record?
The value was 7.14 µg/kg.

And the translated human dose ([1]; based on a human weighing 70 kg, from the rat effective dose)?
Its translated human dose is 0.5 mg.

And the effective dose administered ([1]; in 50 ul of LME to a 350 g rat, intranasal)?
The effective dose administered was 2.5 µg.

And the “fold lower dose inducing wakefulness via intranasal route than published for traditional routes (i.v., oral)” value ([1]; rat, intranasal LME)?
Its value is 100 fold.

And the “time to awakening post modafinil administration” value ([1]; rat, intranasal snort delivery in LME under isoflurane anesthesia, control rats awoke within 3-5 minutes after termination of anesthesia)?
The value was “one”.

What about the “effective concentration of modafinil in the lipid microemulsion” value ([1]; rat, intranasal, 50 ul of LME) of the same molecule?
The value was 0.05 mg/mL.

What about the “effect of attempting to deliver an intranasal dose comparable to that given orally” value ([1]; rat, under isoflurane anesthesia) of the same molecule?
The value was “the excitatory effects overcame the anesthesia and the animals woke up”.

And the “effectiveness of intranasal delivery under chronic stressful conditions” value [2]?
The value was “Our results confirm the effectiveness of intranasal delivery of modafinil under chronic stressful conditions”.

What about the “performance and alertness throughout the 18 h work period” value [3] of the same molecule?
Its value is “maintain elevated performance and alertness over LME-only negative controls and even over systemically-administered modafinil positive-controls”.
